Data reported in patent US12351819B2, “Method for removing undifferentiated pluripotent stem cells” (priority 2017, dated 2025).

Legend:
[1] = system: H9 hESC-MSCs; assay: Cell morphology under bright field, H9 hESC-MSCs; assay type: cell-based, human; conditions: 2.5 μM, 12 hours and 24 hours
[2] = system: Nanog in hESCs; assay: Western blot of pluripotent stem cell marker Nanog, hESCs; assay type: cell-based, human; conditions: 2.5 μM, 12 hours
Experimental: (§1) RIPA buffer was used to harvest cell lysates (RIPA buffer: NaCl 150 mM, Tris pH 8.0 50 mM, EDTApH 8.0 5 mM, NP-40 1.0%, SDS 0.5%, sodium deoxycholate 0.1%). Western blot analyses were performed as previously described with different types of primary antibodies^29. The primary antibody includes anti-β-actin (A5441; Sigma), anti-Oct4 (sc-9081; Santa Cruz Biotechnology, Santa Cruz, CA, USA), anti-Nanog (3580; Cell Signaling Technology, Danvers, MA, USA), apoptosis antibody kit (9915; Cell Signaling Technology), ATP1A1 (3010; Cell Signaling Technology), and ATP1A2 (16836-1-AP; Proteintech™) were used. After reaction at 4° C. overnight, the blots were incubated with goat anti-mouse- or goat anti-rabbit antibody conjugated with horseradish peroxidase (Jackson ImmunoResearch Inc). The chemiluminescent substrate (WBKLS0500; Millipore, Darmstadt, Germany) was used to detect the blots. Fujifilm LAS-4000 (FUJIFILM, Tokyo, Japan) was used to take the images.

[3] = system: H9 hESC-MSCs; conditions: 2.5 μM, 24 hours
Experimental: (§2) The supernatants of cells treated with digoxin […], lanatoside C 2.5 μm, or DMSO solvent control for 24 hours were harvested. The released LDH was measured using CytoTox 96 […] assay according to the manufacture's instruction (Promega, Southampton, UK). The supernatants and reagents were incubated at room temperature for 20 minutes and then the reaction was stopped by Stop Solution. The absorbance at 490 nm was measured using a plate-reading spectrophotometer (Benchmark Plus Microplate Spectrophotometer System, BIO-RAD, CA, USA).
According to the report from Dr. Xu and colleagues^30, hESCs were cultured with 10 ng/ml BMP4 and 1 μM of A8301 for 5 days. Next, the cells were passaged on the gelatin-coated plate and the culture medium was switched to MSC culture medium [Minimum Essential Medium Eagle Alpha Modification (αMEM) medium supplemented with 20% fetal bovine serum (FBS), 1-glutamine (Gluta-MAX), 1× nonessential amino acids]. Cells were expanded within passage 5, and CD73^+ (11-0793, ThermoFisher Scientific) and CD105^+ (12-1057, ThermoFisher Scientific) double positive cells were sorted.
hESC-derived MSCs were trypsinized and washed with PBS. Then cells were incubated with anti-human CD73 FITC (ThermoFisher Scientific) and anti-human CD105 PE (ThermoFisher Scientific) for 15 minutes at 4° C. Cells were washed cells with PBS for three times. CD73^+/CD105^+ cells were sorted with the cell sorter (BD FACSAria II, BD Biosciences). Sorted cells were maintained in MSC culture medium.

[4] = system: hESCs; assay: Alamar blue assay, hESCs; assay type: cell-based, human; conditions: FIG. 12
Experimental: Alamar blue assay measured the relative cell number. In the cells, we added 1/10 of Alamar Blue Viability Assay reagent to the total volume of the mixture (Biotium; Fremont, CA, USA). The cells were incubated overnight at 37° C. The resulted were quantified by the measurement of optical density (OD) absorbance values at 570 nm and 600 nm, and the relative cell number was calculated.

[5] = system: hESCs; assay: Cell colony and morphology under bright field, hESCs; assay type: cell-based, human; conditions: 2.5 μM, 12 hours and 24 hours
Experimental: Scale bar: 500 μm. […] The samples were normalized to the DMSO-treated hESCs. ***P<0.001; **P<0.01; n.s. not significant. Data are shown as the mean SD.
We investigated whether cardiac glycosides affected the viability of hESCs or other cell types. First, we treated undifferentiated hESCs with digoxin and lanatoside C for 12 hours and 24 hours, respectively. […] To investigate the cytotoxic effect of the cardiac glycosides, we measured the release of LDH in the culture supernatants after the hESCs were treated with digoxin or Lanatoside C for 24 hours (FIG. 1C).

[6] = system: hiPSCs; conditions: for cytotoxicity (LDH release) in hiPSCs: 2.5 μM, 24 hours; for LDH assay positive, hiPSCs: Table 1
Experimental: as §2
hiPSC-derived endothelial cells were prepared according in a previous report^34. The hiPSCs were maintained in mTeSR 1 medium ([…] Technologies, Vancouver, Canada) on VTN-N coated plates (Thermo, Wilmington, DE, USA). First, for the stepwise induction of differentiation, we performed a mesoderm induction of hiPSCs seeded in mesoderm induction medium for 48 hours (basal medium with […], […], and 2 ng/ml of Activin A; basal medium was composed of 12 g/L of DMEM/F-12, 3.56 g/L of HEPES, 1.742 g/L of sodium bicarbonate, 14 μg/L of sodium selenite, 10.7 mg/L of recombinant transferrin, 19.4 mg/L of recombinant insulin, and 64 mg/L of L-Ascorbic acid 2-phosphate sesquimagnesium salt hydrate). Second, for the mesoderm to endothelium transition, mesoderm cells were reseeded in vasculogenic medium (basal medium with 2 mg/ml of PVA plus 20 ng/ml of hVEGF-A) for an additional 72 hours. All differentiated cells were plated on VTN pre-coated culture plate dishes. The endothelial cells were analyzed on day 5 by flow cytometry staining with the CD31 (PECAM1, ThermoFisher Scientific, Wilmington, DE, USA) and CD144 (CDH5, ThermoFisher Scientific) antibodies.

[7] = system: hESCs (H9); conditions: for cytotoxic effect (LDH release) in hESCs: 2.5 μM, 24 hours, vs DMSO; for LDH assay positive, hESCs: Table 1
Experimental: (§3) The hESC line H9 was purchased from WiCells (Madison, WI, USA)^27. Another hESC line, HUES6, was kindly provided by Dr. Douglas A. Melton (Harvard University, Boston, MA, USA)^28. Cells were maintained on the feeder cells and cultured in Dulbecco's modified Eagle's medium (DMEM)/F12 supplemented with 20% knockout serum replacement, 2 mM L-glutamine, 1% nonessential amino acids, 4 ng/mL human bFGF, and 0.1 mM 2-mercaptoethanol. For the feeder cells culture, C57BL/6 mouse embryonic fibroblasts (MEF) were cultured in the DMEM with 10% FBS and treated cells with 0.01 mg/ml mitomycin C 2-6 hours for inactivation. For the feeder-free culture, hESCs were seeded on the Matrigel Matrix (BD Biosciences, San Jose, CA, USA) coated culture plates and maintained by conditioned medium of MEF (C57BL/6). hBMMSCs were cultured in mesenPRO RS™ kit (Life Technologies, Camarillo, CA, USA). All cells were cultured in a humidified atmosphere containing 5% CO2 at 37° C.
as §2

[8] = system: human bone marrow mesenchymal stem cells (hBMMSCs); conditions: 2.5 μM, 24 hours, vs DMSO
Experimental: as §3, §2

[9] = system: cleaved PARP, caspase-3, caspase-7 in hESCs; assay: Western blot of apoptotic markers, hESCs; assay type: cell-based, human; conditions: 2.5 μM, 12 hours
Experimental: as §1

Structure (SMILES) | cell death (bright field morphology) in H9 hESC-MSCs [1] | protein levels of Nanog in hESCs [2] | cytotoxicity (LDH release) in H9 hESC-MSCs [3] | cell death in hESCs (Alamar blue, relative cell number) [4] | cell death (bright field morphology) in hESCs [5] | cytotoxicity (LDH release) in hiPSCs [6] | LDH assay positive, hiPSCs [6] | cytotoxic effect (LDH release) in hESCs [7] | LDH assay positive, hESCs [7] | cytotoxic effect (LDH release) in hBMMSCs [8] | cleaved form of PARP, caspase-3, caspase-7 in hESCs [9]
C[C@H]1O[C@@H](O[C@H]2[C@@H](O)C[C@H](O[C@H]3[C@@H](O)C[C@H](O[C@H]4CC[C@@]5(C)[C@H](CC[C@@H]6[C@@H]5C[C@@H](O)[C@]5(C)[C@@H](C7=CC(=O)OC7)CC[C@]65O)C4)O[C@@H]3C)O[C@@H]2C)C[C@H](O)[C@@H]1O [Digoxin, digoxin] | Neither digoxin (2.5 μM) nor lanatoside C (2.5 μM) induced cell death | downregulated | Neither Digoxin nor lanatoside C affected the survival | dose dependent manner | induced dramatic cell death | induced cytotoxicity | +++ (more than 70% positive cells) | significantly induced a cytotoxic effect | +++ (more than 70% positive cells) | no cytotoxic effects | increases in the cleaved form
CC(=O)O[C@H]1C[C@H](O[C@H]2[C@@H](O)C[C@H](O[C@H]3[C@@H](O)C[C@H](O[C@H]4CC[C@@]5(C)[C@H](CC[C@@H]6[C@@H]5C[C@@H](O)[C@]5(C)[C@@H](C7=CC(=O)OC7)CC[C@]65O)C4)O[C@@H]3C)O[C@@H]2C)O[C@H](C)[C@H]1O[C@@H]1O[C@H](CO)[C@@H](O)[C@H](O)[C@H]1O [Lanatoside C, lanatoside C] | Neither digoxin (2.5 μM) nor lanatoside C (2.5 μM) induced cell death | downregulated | Neither Digoxin nor lanatoside C affected the survival | dose dependent manner | induced dramatic cell death | induced cytotoxicity | +++ (more than 70% positive cells) | significantly induced a cytotoxic effect | +++ (more than 70% positive cells) | no cytotoxic effects | increases in the cleaved form
